#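 These data come from cells grown in 96-well plates and exposed to compound for 48 hours at five concentrations. At the GI50, growth is halved. TGI marks complete inhibition of growth.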
# Experiments:
# Assay in all cases: NCI-60 cell line screen, 48 h
# [1] = tested on: 786-0 renal
# [2] = tested on: TK-10 renal
# [3] = tested on: HCT-116 colon
# [4] = tested on: T-47D breast
# [5] = tested on: MCF7 breast
# [6] = tested on: U251 CNS
# [7] = tested on: SF-539 CNS
# [8] = tested on: IGROV1 ovarian
# [9] = tested on: SR leukemia
# [10] = tested on: HOP-92 NSCLC
# [11] = tested on: HT29 colon
# [12] = tested on: HCC-2998 colon
# [13] = tested on: OVCAR-4 ovarian
# [14] = tested on: NCI-H226 lung
# [15] = tested on: HOP-62 NSCLC
# [16] = tested on: NCI-H460 lung
# [17] = tested on: OVCAR-5 ovarian
# [18] = tested on: SF-295 CNS
# [19] = tested on: OVCAR-3 ovarian
# [20] = tested on: HS 578T breast
# [21] = tested on: MDA-MB-231 breast
# [22] = tested on: MALME-3M melanoma
# [23] = tested on: NCI-H23 lung
# [24] = tested on: MDA-N
# [25] = tested on: SK-MEL-2 melanoma
# [26] = tested on: M14 melanoma
# [27] = tested on: EKVX NSCLC
# [28] = tested on: A498 renal
# [29] = tested on: MDA-MB-435
# [30] = tested on: SNB-19 CNS
# [31] = tested on: PC-3 prostate
# [32] = tested on: SN12C renal
# [33] = tested on: COLO 205 colon
# [34] = tested on: DU-145 prostate
# [35] = tested on: HCT-15 colon
# [36] = tested on: LOX IMVI melanoma
# [37] = tested on: NCI-H522 lung
# [38] = tested on: OVCAR-8 ovarian
# [39] = tested on: A549 NSCLC
# [40] = tested on: ACHN renal
# [41] = tested on: SF-268 CNS
# [42] = tested on: BT-549 breast
# [43] = tested on: UACC-257 melanoma
# [44] = tested on: SW-620 colon
# [45] = tested on: SNB-75 CNS
# [46] = tested on: SK-MEL-28 melanoma
# [47] = tested on: CCRF-CEM leukemia
# [48] = tested on: K-562 leukemia
# [49] = tested on: CAKI-1 renal
# [50] = tested on: KM12 colon
# [51] = tested on: HL-60(TB) leukemia
# [52] = tested on: MOLT-4 leukemia
# [53] = tested on: UACC-62 melanoma
# [54] = tested on: RXF 393 renal
# [55] = tested on: SK-MEL-5 melanoma
# [56] = tested on: RPMI-8226 leukemia
# [57] = tested on: SK-OV-3 ovarian
compound,measurement,setting,value
CC(=O)OCc1cnc2c3c(nc4ccccc4c13)C(=O)c1cccnc1-2,GI50,[1],< 10 nM
same,TGI,[1],30.5 nM
same,GI50,[2],57.3 nM
same,TGI,[2],420 nM
same,GI50,[3],< 10 nM
same,TGI,[3],27 nM
same,GI50,[4],827 nM
same,TGI,[4],10500 nM
same,GI50,[5],< 11.8 nM
same,TGI,[5],90.4 nM
same,GI50,[6],23.7 nM
same,GI50,[7],< 13.1 nM
same,TGI,[7],82 nM
same,GI50,[8],124 nM
same,TGI,[8],1890 nM
same,GI50,[9],< 10 nM
same,TGI,[9],> 100000 nM
same,GI50,[10],104 nM
same,TGI,[10],2770 nM
same,GI50,[11],193 nM
same,TGI,[11],634 nM
same,GI50,[12],102 nM
same,TGI,[12],535 nM
same,GI50,[13],32.9 nM
same,TGI,[13],390 nM
same,GI50,[14],< 15 nM
same,TGI,[14],121 nM
same,GI50,[15],27 nM
same,TGI,[15],163 nM
same,GI50,[16],18.6 nM
same,TGI,[16],147 nM
same,GI50,[17],435 nM
same,TGI,[17],2230 nM
same,GI50,[18],172 nM
same,TGI,[18],751 nM
same,GI50,[19],30 nM
same,GI50,[20],271 nM
same,TGI,[20],1330 nM
same,GI50,[21],131 nM
same,TGI,[21],647 nM
same,GI50,[22],22 nM
same,TGI,[22],205 nM
same,GI50,[23],118 nM
same,TGI,[23],612 nM
same,GI50,[24],110 nM
same,TGI,[24],366 nM
same,GI50,[25],482 nM
same,TGI,[25],1960 nM
same,GI50,[26],25.5 nM
same,TGI,[26],125 nM
same,GI50,[27],187 nM
same,TGI,[27],2600 nM
same,GI50,[28],162 nM
same,TGI,[28],790 nM
same,GI50,[29],120 nM
same,TGI,[29],527 nM
same,GI50,[30],42.4 nM
same,TGI,[30],959 nM
same,GI50,[31],133 nM
same,TGI,[31],2420 nM
same,GI50,[32],22.1 nM
same,TGI,[32],318 nM
same,GI50,[33],321 nM
same,TGI,[33],1010 nM
same,GI50,[34],< 18.7 nM
same,TGI,[34],147 nM
same,GI50,[35],< 10 nM
same,TGI,[35],127 nM
same,GI50,[36],< 10 nM
same,TGI,[36],51.7 nM
same,GI50,[37],43.4 nM
same,TGI,[37],330 nM
same,GI50,[38],11.5 nM
same,TGI,[38],109 nM
same,GI50,[39],58.6 nM
same,TGI,[39],14900 nM
same,GI50,[40],< 10 nM
same,GI50,[41],34.1 nM
same,TGI,[41],1010 nM
same,GI50,[42],150 nM
same,TGI,[42],1760 nM
same,GI50,[43],253 nM
same,TGI,[43],849 nM
same,GI50,[44],< 11.3 nM
same,TGI,[44],500 nM
same,GI50,[45],68.3 nM
same,TGI,[45],414 nM
same,GI50,[46],174 nM
same,TGI,[46],614 nM
same,GI50,[47],25.1 nM
same,GI50,[48],47.8 nM
same,GI50,[49],< 10 nM
same,TGI,[49],150 nM
same,GI50,[50],167 nM
same,TGI,[50],504 nM
same,GI50,[51],20.6 nM
same,GI50,[52],290 nM
same,TGI,[52],> 20500 nM
same,GI50,[53],135 nM
same,TGI,[53],403 nM
same,GI50,[54],< 34.3 nM
same,TGI,[54],841 nM
same,GI50,[55],37.3 nM
same,TGI,[55],106 nM
same,GI50,[56],168 nM
same,TGI,[56],983 nM
same,GI50,[57],50 nM
same,TGI,[57],874 nM

# — PubChem BioAssay (NCI)
